How the values were obtained:
Assay in all cases: Test C preemergence
Type in all cases: in vivo
[1] = tested on: Galium (catchweed bedstraw, Galium aparine); conditions: for Plant response rating, Galium: scale 0 to 100, 0 no effect, 100 complete control; for Plant response rating (scale of 0 to 100), Galium: 0 is no effect, 100 is complete control
Procedure, shortened: (§1)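 Seeds in loam-sand soil treated preemergence, or plants in peat-based medium sprayed postemergence at 2–18 cm (1- to 4-leaf stage), with compound in a non-phytotoxic solvent mixture containing surfactant. Greenhouse-held 13–15 d, then visually rated against controls on a 0–100 scale (0 = no effect, 100 = complete control); dash = not tested.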

[2] = tested on: barnyardgrass (Echinochloa crus-galli); conditions: for Plant response rating, Barnyardgrass: scale 0 to 100, 0 no effect, 100 complete control; for Plant response rating (scale of 0 to 100), Barnyardgrass: 0 is no effect, 100 is complete control
Procedure, shortened: as §1

[3] = tested on: crabgrass, large (large crabgrass, Digitaria sanguinalis); conditions: for Plant response rating, Crabgrass, Large: scale 0 to 100, 0 no effect, 100 complete control; for Plant response rating (scale of 0 to 100), Crabgrass, Large: 0 is no effect, 100 is complete control
Procedure, shortened: as §1

[4] = tested on: foxtail, giant (giant foxtail, Setaria faberii); conditions: for Plant response rating, Foxtail, Giant: scale 0 to 100, 0 no effect, 100 complete control; for Plant response rating (scale of 0 to 100), Foxtail, Giant: 0 is no effect, 100 is complete control
Procedure, shortened: as §1

[5] = tested on: morningglory (Ipomoea coccinea); conditions: for Plant response rating, Morningglory: scale 0 to 100, 0 no effect, 100 complete control; for Plant response rating (scale of 0 to 100), Morningglory: 0 is no effect, 100 is complete control
Procedure, shortened: as §1

[6] = tested on: nutsedge, yellow (yellow nutsedge, Cyperus esculentus); conditions: for Plant response rating, Nutsedge, Yellow: scale 0 to 100, 0 no effect, 100 complete control; for Plant response rating (scale of 0 to 100), Nutsedge, Yellow: 0 is no effect, 100 is complete control
Procedure, shortened: as §1

[7] = tested on: oilseed rape (Brassica napus); conditions: for Plant response rating, Oilseed Rape: scale 0 to 100, 0 no effect, 100 complete control; for Plant response rating (scale of 0 to 100), Oilseed Rape: 0 is no effect, 100 is complete control
Procedure, shortened: as §1

soybean (Glycine max) = conditions: for Plant response rating, Soybean: scale 0 to 100, 0 no effect, 100 complete control; for Plant response rating (scale of 0 to 100), Soybean: 0 is no effect, 100 is complete control
Procedure, shortened: as §1

[8] = tested on: velvetleaf (Abutilon theophrasti); conditions: for Plant response rating, Velvetleaf: scale 0 to 100, 0 no effect, 100 complete control; for Plant response rating (scale of 0 to 100), Velvetleaf: 0 is no effect, 100 is complete control
Procedure, shortened: as §1

[9] = tested on: lambsquarters (Chenopodium album); conditions: for Plant response rating, Lambsquarters: scale 0 to 100, 0 no effect, 100 complete control; for Plant response rating (scale of 0 to 100), Lambsquarters: 0 is no effect, 100 is complete control
Procedure, shortened: as §1

[10] = tested on: ryegrass, Italian (Italian ryegrass, Lolium multiflorum); conditions: for Plant response rating, Ryegrass, Italian: scale 0 to 100, 0 no effect, 100 complete control; for Plant response rating (scale of 0 to 100), Ryegrass, Italian: 0 is no effect, 100 is complete control
Procedure, shortened: as §1

[11] = tested on: waterhemp (common waterhemp, Amaranthus rudis); conditions: for Plant response rating, Waterhemp: scale 0 to 100, 0 no effect, 100 complete control; for Plant response rating (scale of 0 to 100), Waterhemp: 0 is no effect, 100 is complete control
Procedure, shortened: as §1

corn (Zea mays) = conditions: for Plant response rating, Corn: scale 0 to 100, 0 no effect, 100 complete control; for Plant response rating (scale of 0 to 100), Corn: 0 is no effect, 100 is complete control
Procedure, shortened: as §1

[12] = tested on: wheat (winter wheat, Triticum aestivum); conditions: for Plant response rating, Wheat: scale 0 to 100, 0 no effect, 100 complete control; for Plant response rating (scale of 0 to 100), Wheat: 0 is no effect, 100 is complete control
Procedure, shortened: as §1

[13] = tested on: blackgrass (Alopecurus myosuroides); conditions: for Plant response rating, Blackgrass: scale 0 to 100, 0 no effect, 100 complete control; for Plant response rating (scale of 0 to 100), Blackgrass: 0 is no effect, 100 is complete control
Procedure, shortened: as §1

[14] = tested on: ragweed (common ragweed, Ambrosia elatior); conditions: for Plant response rating, Ragweed: scale 0 to 100, 0 no effect, 100 complete control; for Plant response rating (scale of 0 to 100), Ragweed: 0 is no effect, 100 is complete control
Procedure, shortened: as §1

CN1CC(c2ccc(C(F)(F)F)c(F)c2)C(C(=O)Nc2ccccc2S(C)(=O)=O)C1=O (stereo not drawn) [Compound 397]
Plant response rating, Galium ([1]; 31 g ai/ha): 40
Plant response rating, Galium ([1]; 62 g ai/ha): 80
Plant response rating, Galium ([1]; 125 g ai/ha): 90
Plant response rating, Galium ([1]; 250 g ai/ha): 90
Plant response rating, Barnyardgrass ([2]; 31 g ai/ha): 90
Plant response rating, Barnyardgrass ([2]; 62 g ai/ha): 95
Plant response rating, Barnyardgrass ([2]; 125 g ai/ha): 98
Plant response rating, Barnyardgrass ([2]; 250 g ai/ha): 98
Plant response rating, Crabgrass, Large ([3]; 31 g ai/ha): 98
Plant response rating, Crabgrass, Large ([3]; 62 g ai/ha): 98
Plant response rating, Crabgrass, Large ([3]; 125 g ai/ha): 100
Plant response rating, Crabgrass, Large ([3]; 250 g ai/ha): 100
Plant response rating, Foxtail, Giant ([4]; 31 g ai/ha): 95
Plant response rating, Foxtail, Giant ([4]; 62 g ai/ha): 95
Plant response rating, Foxtail, Giant ([4]; 125 g ai/ha): 98
Plant response rating, Foxtail, Giant ([4]; 250 g ai/ha): 98
Plant response rating, Morningglory ([5]; 31 g ai/ha): 5
Plant response rating, Morningglory ([5]; 62 g ai/ha): 55
Plant response rating, Morningglory ([5]; 125 g ai/ha): 60
Plant response rating, Morningglory ([5]; 250 g ai/ha): 70
Plant response rating, Nutsedge, Yellow ([6]; 31 g ai/ha): 0
Plant response rating, Nutsedge, Yellow ([6]; 62 g ai/ha): 10
Plant response rating, Nutsedge, Yellow ([6]; 125 g ai/ha): 50
Plant response rating, Nutsedge, Yellow ([6]; 250 g ai/ha): 70
Plant response rating, Oilseed Rape ([7]; 31 g ai/ha): 20
Plant response rating, Oilseed Rape ([7]; 62 g ai/ha): 70
Plant response rating, Oilseed Rape ([7]; 125 g ai/ha): 80
Plant response rating, Oilseed Rape ([7]; 250 g ai/ha): 85
Plant response rating, Soybean (soybean (Glycine max); 62 g ai/ha): 0
Plant response rating, Soybean (soybean (Glycine max); 125 g ai/ha): 0
Plant response rating, Soybean (soybean (Glycine max); 250 g ai/ha): 20
Plant response rating, Velvetleaf ([8]; 62 g ai/ha): 25
Plant response rating, Velvetleaf ([8]; 125 g ai/ha): 30
Plant response rating, Velvetleaf ([8]; 250 g ai/ha): 45
Plant response rating, Lambsquarters ([9]; 31 g ai/ha): 30
Plant response rating, Lambsquarters ([9]; 62 g ai/ha): 70
Plant response rating, Lambsquarters ([9]; 125 g ai/ha): 75
Plant response rating, Lambsquarters ([9]; 250 g ai/ha): 75
Plant response rating, Ryegrass, Italian ([10]; 62 g ai/ha): 60
Plant response rating, Ryegrass, Italian ([10]; 125 g ai/ha): 60
Plant response rating, Ryegrass, Italian ([10]; 250 g ai/ha): 60
Plant response rating, Waterhemp ([11]; 62 g ai/ha): 90
Plant response rating, Waterhemp ([11]; 125 g ai/ha): 98
Plant response rating, Waterhemp ([11]; 250 g ai/ha): 95
Plant response rating, Corn (corn (Zea mays); 31 g ai/ha): 25
Plant response rating, Corn (corn (Zea mays); 62 g ai/ha): 15
Plant response rating, Corn (corn (Zea mays); 125 g ai/ha): 60
Plant response rating, Corn (corn (Zea mays); 250 g ai/ha): 75
Plant response rating, Wheat ([12]; 62 g ai/ha): 45
Plant response rating, Wheat ([12]; 125 g ai/ha): 45
Plant response rating, Wheat ([12]; 250 g ai/ha): 70
Plant response rating, Blackgrass ([13]; 31 g ai/ha): 55
Plant response rating, Blackgrass ([13]; 62 g ai/ha): 70
Plant response rating, Blackgrass ([13]; 125 g ai/ha): 90
Plant response rating, Blackgrass ([13]; 250 g ai/ha): 90
Plant response rating, Ragweed ([14]; 31 g ai/ha): 20
Plant response rating, Ragweed ([14]; 62 g ai/ha): 75
Plant response rating, Ragweed ([14]; 125 g ai/ha): 70
Plant response rating, Ragweed ([14]; 250 g ai/ha): 70

CN1CC(c2ccc(C(C)(F)F)cc2)C(C(=O)Nc2ccccc2F)C1=O (stereo not drawn) [Compound 691]
Plant response rating (scale of 0 to 100), Galium ([1]; 16 g ai/ha): 100
Plant response rating (scale of 0 to 100), Galium ([1]; 31 g ai/ha): 100
Plant response rating, Galium ([1]; 62 g ai/ha): 95
Plant response rating, Galium ([1]; 125 g ai/ha): 95
Plant response rating (scale of 0 to 100), Barnyardgrass ([2]; 16 g ai/ha): 90
Plant response rating (scale of 0 to 100), Barnyardgrass ([2]; 31 g ai/ha): 90
Plant response rating, Barnyardgrass ([2]; 62 g ai/ha): 98
Plant response rating, Barnyardgrass ([2]; 125 g ai/ha): 100
Plant response rating (scale of 0 to 100), Crabgrass, Large ([3]; 16 g ai/ha): 98
Plant response rating (scale of 0 to 100), Crabgrass, Large ([3]; 31 g ai/ha): 100
Plant response rating, Crabgrass, Large ([3]; 62 g ai/ha): 100
Plant response rating, Crabgrass, Large ([3]; 125 g ai/ha): 100
Plant response rating (scale of 0 to 100), Foxtail, Giant ([4]; 16 g ai/ha): 95
Plant response rating (scale of 0 to 100), Foxtail, Giant ([4]; 31 g ai/ha): 95
Plant response rating, Foxtail, Giant ([4]; 62 g ai/ha): 98
Plant response rating, Foxtail, Giant ([4]; 125 g ai/ha): 98
Plant response rating (scale of 0 to 100), Morningglory ([5]; 16 g ai/ha): 0
Plant response rating (scale of 0 to 100), Morningglory ([5]; 31 g ai/ha): 30
Plant response rating, Morningglory ([5]; 62 g ai/ha): 20
Plant response rating, Morningglory ([5]; 125 g ai/ha): 40
Plant response rating (scale of 0 to 100), Nutsedge, Yellow ([6]; 16 g ai/ha): 0
Plant response rating (scale of 0 to 100), Nutsedge, Yellow ([6]; 31 g ai/ha): 0
Plant response rating, Nutsedge, Yellow ([6]; 62 g ai/ha): 0
Plant response rating, Nutsedge, Yellow ([6]; 125 g ai/ha): 20
Plant response rating (scale of 0 to 100), Oilseed Rape ([7]; 16 g ai/ha): 0
Plant response rating (scale of 0 to 100), Oilseed Rape ([7]; 31 g ai/ha): 35
Plant response rating, Oilseed Rape ([7]; 62 g ai/ha): 50
Plant response rating, Oilseed Rape ([7]; 125 g ai/ha): 80
Plant response rating (scale of 0 to 100), Soybean (soybean (Glycine max); 16 g ai/ha): 0
Plant response rating (scale of 0 to 100), Soybean (soybean (Glycine max); 31 g ai/ha): 0
Plant response rating, Soybean (soybean (Glycine max); 62 g ai/ha): 15
Plant response rating, Soybean (soybean (Glycine max); 125 g ai/ha): 15
Plant response rating (scale of 0 to 100), Velvetleaf ([8]; 16 g ai/ha): 10
Plant response rating (scale of 0 to 100), Velvetleaf ([8]; 31 g ai/ha): 25
Plant response rating, Velvetleaf ([8]; 62 g ai/ha): 40
Plant response rating, Velvetleaf ([8]; 125 g ai/ha): 50
Plant response rating (scale of 0 to 100), Lambsquarters ([9]; 16 g ai/ha): 70
Plant response rating (scale of 0 to 100), Lambsquarters ([9]; 31 g ai/ha): 85
Plant response rating, Lambsquarters ([9]; 62 g ai/ha): 90
Plant response rating, Lambsquarters ([9]; 125 g ai/ha): 90
Plant response rating (scale of 0 to 100), Ryegrass, Italian ([10]; 16 g ai/ha): 0
Plant response rating (scale of 0 to 100), Ryegrass, Italian ([10]; 31 g ai/ha): 0
Plant response rating, Ryegrass, Italian ([10]; 62 g ai/ha): 35
Plant response rating, Ryegrass, Italian ([10]; 125 g ai/ha): 55
Plant response rating (scale of 0 to 100), Waterhemp ([11]; 16 g ai/ha): 85
Plant response rating (scale of 0 to 100), Waterhemp ([11]; 31 g ai/ha): 85
Plant response rating, Waterhemp ([11]; 62 g ai/ha): 95
Plant response rating, Waterhemp ([11]; 125 g ai/ha): 95
Plant response rating (scale of 0 to 100), Corn (corn (Zea mays); 16 g ai/ha): 0
Plant response rating (scale of 0 to 100), Corn (corn (Zea mays); 31 g ai/ha): 40
Plant response rating, Corn (corn (Zea mays); 62 g ai/ha): 55
Plant response rating, Corn (corn (Zea mays); 125 g ai/ha): 65
Plant response rating (scale of 0 to 100), Wheat ([12]; 16 g ai/ha): 10
Plant response rating (scale of 0 to 100), Wheat ([12]; 31 g ai/ha): 10
Plant response rating, Wheat ([12]; 62 g ai/ha): 60
Plant response rating, Wheat ([12]; 125 g ai/ha): 80
Plant response rating (scale of 0 to 100), Blackgrass ([13]; 16 g ai/ha): 0
Plant response rating (scale of 0 to 100), Blackgrass ([13]; 31 g ai/ha): 0
Plant response rating, Blackgrass ([13]; 62 g ai/ha): 5
Plant response rating, Blackgrass ([13]; 125 g ai/ha): 75
Plant response rating (scale of 0 to 100), Ragweed ([14]; 16 g ai/ha): 0
Plant response rating (scale of 0 to 100), Ragweed ([14]; 31 g ai/ha): 100
Plant response rating, Ragweed ([14]; 62 g ai/ha): 70
Plant response rating, Ragweed ([14]; 125 g ai/ha): 85
